# Experiments:
# [1] = target: T1, rat PDE10A2 (Rattus norvegicus, UniProt Q9QYJ6); test: rat PDE10A2-cAMP inhibition; assay type: biochemical; settings: read-out: pIC50, rat PDE10A2-cAMP inhibition (converted)
# T1 sequence (Q9QYJ6 1-794): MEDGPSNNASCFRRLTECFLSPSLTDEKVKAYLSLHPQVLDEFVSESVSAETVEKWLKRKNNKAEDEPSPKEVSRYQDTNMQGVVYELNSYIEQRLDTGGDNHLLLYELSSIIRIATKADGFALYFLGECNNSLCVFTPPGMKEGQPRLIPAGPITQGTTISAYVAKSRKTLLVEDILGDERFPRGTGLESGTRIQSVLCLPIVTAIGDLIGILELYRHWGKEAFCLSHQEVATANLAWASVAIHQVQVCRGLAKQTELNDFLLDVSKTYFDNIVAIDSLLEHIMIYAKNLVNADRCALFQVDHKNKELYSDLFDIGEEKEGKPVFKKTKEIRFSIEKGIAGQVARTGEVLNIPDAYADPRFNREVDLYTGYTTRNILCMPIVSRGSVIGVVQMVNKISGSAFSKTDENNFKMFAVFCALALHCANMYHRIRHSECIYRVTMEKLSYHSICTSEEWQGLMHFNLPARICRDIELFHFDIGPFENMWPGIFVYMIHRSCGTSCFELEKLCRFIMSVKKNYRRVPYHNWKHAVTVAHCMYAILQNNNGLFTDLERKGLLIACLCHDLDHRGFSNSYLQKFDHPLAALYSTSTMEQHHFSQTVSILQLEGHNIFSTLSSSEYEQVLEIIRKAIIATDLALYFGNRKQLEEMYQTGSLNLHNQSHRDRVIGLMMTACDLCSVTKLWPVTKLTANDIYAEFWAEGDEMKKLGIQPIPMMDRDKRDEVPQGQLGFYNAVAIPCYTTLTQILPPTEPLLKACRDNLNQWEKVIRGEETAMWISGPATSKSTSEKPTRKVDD
# Method: The affinity of compounds Ia and Ib was determined by measuring rat PDE10A2-cAMP inhibition: […]
# [2] = target: PDE8A1 (Homo sapiens, UniProt O60658); test: selectivity over PDE8A1; assay type: biochemical
# PDE8A1, sequence (O60658 whole entry, species assumed): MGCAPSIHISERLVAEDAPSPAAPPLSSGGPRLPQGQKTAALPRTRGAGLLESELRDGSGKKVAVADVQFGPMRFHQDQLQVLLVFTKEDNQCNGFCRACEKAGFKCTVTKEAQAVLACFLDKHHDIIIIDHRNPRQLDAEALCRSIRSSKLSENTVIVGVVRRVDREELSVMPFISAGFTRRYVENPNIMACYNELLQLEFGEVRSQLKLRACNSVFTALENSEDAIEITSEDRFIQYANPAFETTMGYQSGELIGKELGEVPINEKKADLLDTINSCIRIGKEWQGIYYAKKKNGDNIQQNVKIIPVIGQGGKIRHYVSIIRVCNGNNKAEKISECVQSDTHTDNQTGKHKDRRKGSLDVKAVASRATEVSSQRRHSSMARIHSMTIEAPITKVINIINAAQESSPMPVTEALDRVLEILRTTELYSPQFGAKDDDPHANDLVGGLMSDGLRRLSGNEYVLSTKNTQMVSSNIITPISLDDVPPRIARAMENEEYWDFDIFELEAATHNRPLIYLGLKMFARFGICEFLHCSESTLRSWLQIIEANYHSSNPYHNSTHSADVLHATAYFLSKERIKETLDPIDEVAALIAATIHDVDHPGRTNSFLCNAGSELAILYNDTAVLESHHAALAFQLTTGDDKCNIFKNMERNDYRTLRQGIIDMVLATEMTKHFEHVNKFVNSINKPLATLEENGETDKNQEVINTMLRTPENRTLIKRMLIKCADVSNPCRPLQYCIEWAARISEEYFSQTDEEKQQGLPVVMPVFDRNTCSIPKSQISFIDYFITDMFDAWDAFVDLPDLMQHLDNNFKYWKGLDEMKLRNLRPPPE
IC50 [1] [nM],selective over PDE8A1 [2] [fold],melting point [°C],Compound
0.692,> 200,101.9,"FCCCn1cc(-c2ccncc2)c(-c2ccc(OCc3ccc4ccccc4n3)cc2)n1 [Ib, 2-{4-[1-(3-Fluoropropyl)-4-pyridin-4-yl-1H-1-pyrazol-3-yl]-phenoxymethyl}-quinoline]"
0.479,–,–,"FCCn1cc(-c2ccncc2)c(-c2ccc(OCc3ccc4ccccc4n3)cc2)n1 [Ia, 2-{4-[1-(2-Fluoroethyl)-4-pyridin-4-yl-1H-1-pyrazol-3-yl]-phenoxymethyl}-quinoline]"

# From US20110305637A1, “RADIOLABELLED PDE10 LIGANDS” (Janssen Pharmaceutica N.V., priority 2009, published 2011)
